Reference: patent publication US7091222B2, “Imidazole derivatives” (Hoffmann-La Roche Inc., priority 2003, dated 2006)

Each compound was assayed against T1, human mGlu 5a receptor (Homo sapiens, UniProt P41594) (assay: [3H]MPEP competition binding on membranes of EBNA cells transfected with human mGlu 5a receptor). Conditions: competition with [3H]MPEP (2 nM), 1 h at 4° C., membranes of transiently transfected EBNA cells; Ki=IC50/[1+L/Kd].
T1 construct: expressed in transfected cells; host or cells: EBNA cells (transient transfection); membrane homogenates
T1 sequence (P41594 21-1180 isoform P41594-2 limits assumed): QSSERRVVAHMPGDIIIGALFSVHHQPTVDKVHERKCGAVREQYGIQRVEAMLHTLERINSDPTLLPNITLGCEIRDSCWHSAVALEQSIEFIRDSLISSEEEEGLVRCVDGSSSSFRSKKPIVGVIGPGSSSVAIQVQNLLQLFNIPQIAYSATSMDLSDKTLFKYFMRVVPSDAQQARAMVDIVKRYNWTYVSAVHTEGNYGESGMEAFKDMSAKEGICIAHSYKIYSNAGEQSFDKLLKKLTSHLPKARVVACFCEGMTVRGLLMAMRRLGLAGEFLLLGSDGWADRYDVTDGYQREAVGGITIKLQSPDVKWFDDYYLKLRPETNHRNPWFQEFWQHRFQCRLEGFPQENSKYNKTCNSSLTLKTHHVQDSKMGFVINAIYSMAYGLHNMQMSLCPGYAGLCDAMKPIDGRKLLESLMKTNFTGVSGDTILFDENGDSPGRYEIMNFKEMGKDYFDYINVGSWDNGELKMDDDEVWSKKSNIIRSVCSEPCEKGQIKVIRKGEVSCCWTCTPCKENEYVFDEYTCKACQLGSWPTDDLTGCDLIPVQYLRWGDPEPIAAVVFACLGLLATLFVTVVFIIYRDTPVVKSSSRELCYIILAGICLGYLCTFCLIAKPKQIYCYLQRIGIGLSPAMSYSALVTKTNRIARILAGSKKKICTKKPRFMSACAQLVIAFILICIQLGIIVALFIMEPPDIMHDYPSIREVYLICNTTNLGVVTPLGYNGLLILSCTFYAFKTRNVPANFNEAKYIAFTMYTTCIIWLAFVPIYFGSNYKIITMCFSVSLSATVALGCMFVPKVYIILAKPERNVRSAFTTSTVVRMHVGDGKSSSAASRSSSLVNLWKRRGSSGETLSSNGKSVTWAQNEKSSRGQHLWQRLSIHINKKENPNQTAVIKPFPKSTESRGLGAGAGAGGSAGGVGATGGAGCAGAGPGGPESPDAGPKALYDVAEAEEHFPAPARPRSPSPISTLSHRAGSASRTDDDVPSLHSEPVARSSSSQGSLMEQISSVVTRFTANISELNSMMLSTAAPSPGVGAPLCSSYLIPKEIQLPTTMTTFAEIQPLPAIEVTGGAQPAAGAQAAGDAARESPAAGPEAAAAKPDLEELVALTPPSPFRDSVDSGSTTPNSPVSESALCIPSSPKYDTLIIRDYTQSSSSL
Experimental: For binding experiments, cDNA encoding human mGlu 5a receptor was transiently transfected into EBNA cells using a procedure described by Schlaeger and Christensen [Cytotechnology 15:1–13 (1998)]. Cell membrane homogenates were stored at −80° C. until the day of assay where upon they were thawed and resuspended and polytronised in 15 mM Tris-HCl, 120 mM NaCl, 100 mM KCl, 25 mM CaCl2, 25 mM MgCl2 binding buffer at pH 7.4 to a final assay concentration of 20 μg protein/well.
Saturation isotherms were determined by addition of twelve [^3H]MPEP concentrations (0.04–100 nM) to these membranes (in a total volume of 200 μl) for 1 h at 4° C. Competition experiments were performed with a fixed concentration of [^3H]MPEP (2 nM) and IC50 values of test compounds evaluated using 11 concentrations (0.3–10,000 nM). Incubations were performed for 1 h at 4° C.
At the end of the incubation, membranes were filtered onto unifilter (96-well white microplate with bonded GF/C filter preincubated 1 h in 0.1% PEI in wash buffer, Packard BioScience, Meriden, Conn.) with a Filtermate 96 harvester (Packard BioScience) and washed 3 times with cold 50 mM Tris-HCl, pH 7.4 buffer. Nonspecific binding was measured in the presence of 10 μM MPEP. The radioactivity on the filter was counted (3 min) on a Packard Top-count microplate scintillation counter with quenching correction after addition of 45 μl of microscint 40 (Canberra Packard S. A., Zürich, Switzerland) and shaking for 20 min.
The inhibition (antagonists) curves were fitted with a four parameter logistic equation giving IC50, and Hill coefficient using an iterative non linear curve fitting software (Xcel fit).
For binding experiments the Ki values of the compounds tested are given. the Ki value is defined by the following formula: Ki=IC50/[1+L /Kd] in which the IC50 values are those concentrations of the compounds tested which cause 50% inhibition of the competing radioligand ([^3H]MPEP). L is the concentraion of radioligand used in the binding experiment and the Kd value of the radioligand is empirically determined for each batch of membranes prepared.
`Cc1cc(C#Cc2cn(C(C)C)c(C)n2)ccn1` [Example 2, 4-(1-Isopropyl-2-methyl-1H-imidazol-4-ylethynyl)-2-methyl-pyridine] showed a Ki of 68 nM. With `Cc1cc(C#Cc2cn(CC3CC3)c(C)n2)ccn1` [Example 4, 4-(1-Cyclopropylmethyl-2-methyl-1H-imidazol-4-ylethynyl)-2-methyl-pyridine] the Ki was 38 nM. Compound `Cc1cc(C#Cc2cn(CC#N)c(C)n2)ccn1` [Example 6, [2-Methyl-4-(2-methyl-pyridin-4-ylethynyl)-imidazol-1-yl]-acetonitrile] has a Ki of 33 nM. `COCCn1cc(C#Cc2ccnc(C)c2)nc1C` [Example 7, 4-[1-(2-Methoxy-ethyl)-2-methyl-1H-imidazol-4-ylethynyl]-2-methyl-pyridine] was tested, and the Ki was 122 nM. With `Cc1nc(C#Cc2ccnc(Cl)c2)cn1CC(C)C` [Example 8, 2-Chloro-4-(1-isobutyl-2-methyl-1H-imidazol-4-ylethynyl)-pyridine] the Ki was 191 nM. `Cc1nc(C#Cc2ccnc(Cl)c2)cn1C` [Example 12, 2-Chloro-4-(1,2-dimethyl-1H-imidazol-4-ylethynyl)-pyridine] was tested, and the Ki was 49 nM. `Cc1cc(C#Cc2cn(C)c(C3CC3)n2)ccn1` [Example 13, 4-(2-Cyclopropyl-1-methyl-1H-imidazol-4-ylethynyl)-2-methyl-pyridine] gave a Ki of 28 nM. Compound `Cc1cc(C#Cc2cn(CC(F)(F)F)c(C)n2)ccn1` [Example 21, 2-Methyl-4-[2-methyl-1-(2,2,2-trifluoro-ethyl)-1H-imidazol-4-ylethynyl]-pyridine] has a Ki of 54 nM. `Cc1nc(C#Cc2ccnc(Cl)c2)cn1CC(F)(F)F` [Example 22, 2-Chloro-4-[2-methyl-1-(2,2,2-trifluoro-ethyl)-1H-imidazol-4-ylethynyl]-pyridine] gave a Ki of 95 nM.
